Here are results for eight compounds from patent US4452991A, “Flavan derivatives useful for impairing RNA virus replication in a cell” (priority 1979, dated 1984).

The test system of assay [1] is virus. The assay can be described thus: plaque reduction (PR) test, antiviral activity in monolayer cell culture. In kind it is cell-based. The conditions noted are these: compound in nutrient agarose overlay, 50% effective dose vs control, read-out: PR (ED50 /μM). As to the method: (§1) Activity may be detected by the plaque inhibition (PI) test and measured by the plaque reduction (PR) test. Both assays involve the formation of a monolayer cell culture in a petri dish followed by infection with a virus suspension, and then overlaying the culture with nutrient agarose in the form of a gel. This gel ensures that there is no spread of virus throughout the culture and thus areas of localised cell destruction of plaques are formed.
Detectable activity is measured with the plaque reduction assay. A range of concentrations of compound of known molarity are incorporated in the nutrient agarose overlay. Plaque suppression is proportional to compound concentration. Plaque numbers are expressed as percentages of a control, and a dose responsecurve may be drawn. From this curve 50% of the effective dose (ED50) may be estimated.

Assay [2] concerns virus. Put plainly: Intranasal administration simulation in vitro (compound on lid of petri dish, inhibition of plaque formation). The conditions noted are these: 1 μg compound spread on inside of petri dish lid, agarose-covered cells. In kind it is cell-based.
Source text: as §1
In the plaque inhibition test a filter paper disc which holds 0.01 ml when impregnated with a solution of compound is placed on top of the agarose gel. The compound may then diffuse throughout the gel so that its greatest concentration will be around the disc and its lowest concentration towards the periphery of the petri dish. The efficacy of the compound may be detected by observing the zone inhibition of plaque formation.
Petri dishes were prepared, as for the plaque inhibition test and the confluent sheet of cells was covered with a layer of agarose gel. The compound, trans-3-methylflavan (1 μg) was dissolved in ethanol, and applied to the lids of the petri dishes. When the ethanol had evaporated, leaving the compound spread over the inside of the lids, these were replaced on the petri dishes.

In the case of `C[C@@H]1Cc2ccccc2O[C@H]1c1ccccc1` (relative stereo) [Example 1, trans-3-methylflavan], in the assay on virus [1], the EC50 turned out to be 0.125 µM. For the same compound, in the assay on virus [2], the “inhibition of plaque formation” value is given as “total inhibition of plaque formation”.

For `C[C@@H]1Cc2cc(Cl)ccc2O[C@H]1c1ccc(Cl)cc1` (relative stereo) [Example 2, trans-4',6-dichloro-3-methylflavan], the EC50 in the assay on virus [1] is 0.135 µM. In the case of `C[C@H]1Cc2ccccc2O[C@H]1c1ccccc1` (relative stereo) [Example 3, cis-3-methylflavan], the EC50 in the assay with virus [1] amounted to 1.1 µM. Same read-out and setting: under `c1ccc2c(c1)C[C@H]1Cc3ccccc3[C@H]1O2` (relative stereo) [Example 5, cis-4b,10,10a,11-tetrahydrobenz(b)indeno(2,1-e)pyran] stands 0.38 µM; under `c1ccc2c(c1)C[C@@H]1CCc3ccccc3[C@@H]1O2` (relative stereo) [Example 6, cis-5,6,6a,12a-tetrahydro-7H-benzo(c)xanthene], 0.03 µM. In the case of `Clc1cc(Cl)c2c(c1)C[C@@H]1CCc3ccccc3[C@@H]1O2` (relative stereo) [Example 7, cis-9,11-dichloro-5,6,6a,12a-tetrahydro-7H-benzo(c)xanthene], the EC50 in the assay with virus [1] was found to be 6 µM. `Clc1cccc2c1O[C@@H]1c3ccccc3C[C@@H]1C2` (relative stereo) [Example 8, cis-6-chloro-4b,10,10a,11-tetrahydrobenz(b)indeno(2,1-e)pyran]: the EC50 with virus [1] came out at 1.5 µM. As for `Clc1cc(Cl)c2c(c1)C[C@H]1Cc3ccccc3[C@H]1O2` (relative stereo) [Example 9, Cis-6,8-dichloro-4b,10,10a,11-tetrahydrobenz(b)indeno(2,1-e)pyran], the EC50 in the assay with virus [1] stood at 0.57 µM.
